Test results from ChEMBL document CHEMBL4613242, “Thiopeptide Defense by an Ant's Bacterial Symbiont” (2020).

Legend:
Assay type in all cases: functional
Candida albicans = assay: Antimicrobial activity against Candida albicans SC5314 at 0.1 ug measured at 24 hrs by agar diffusion assay; conditions: SC5314, 24 h, read-out: DIZ
Trichoderma harzianum = assay: Antimicrobial activity against Trichoderma harzianum T22 at 0.1 ug measured on day 5 by agar diffusion assay; conditions: T22, 120 h, read-out: DIZ
Pseudonocardia [1] = assay: Antimicrobial activity against Pseudonocardia 18AZ-4 at 0.1 ug measured on day 5 by agar diffusion assay; conditions: 18AZ-4, 120 h, read-out: DIZ
Pseudonocardia [2] = assay: Antimicrobial activity against Pseudonocardia 17SE-8 at 0.1 ug measured on day 5 by agar diffusion assay; conditions: 17SE-8, 120 h, read-out: DIZ
Pseudonocardia [3] = assay: Antimicrobial activity against Pseudonocardia 17SM-1 at 0.1 ug measured on day 5 by agar diffusion assay; conditions: 17SM-1, 120 h, read-out: DIZ
Escovopsis sp. = assay: Antimicrobial activity against Escovopsis sp. at 0.1 ug measured on day 5 by agar diffusion assay; conditions: 120 h, read-out: DIZ
Pseudonocardia [4] = assay: Antimicrobial activity against Pseudonocardia 18PO-3 at 0.1 ug measured on day 5 by agar diffusion assay; conditions: 18PO-3, 120 h, read-out: DIZ
Pseudonocardia [5] = assay: Antimicrobial activity against Pseudonocardia 17SE-10 at 0.1 ug measured on day 5 by agar diffusion assay; conditions: 17SE-10, 120 h, read-out: DIZ
Pseudonocardia [6] = assay: Antimicrobial activity against Pseudonocardia PLR1 at 0.1 ug measured on day 5 by agar diffusion assay; conditions: PLR1, 120 h, read-out: DIZ
Bacillus subtilis = assay: Antimicrobial activity against Bacillus subtilis 3610 at 0.1 ug measured at 24 hrs by agar diffusion assay; conditions: Bacillus subtilis, 3610, 24 h; read-out: DIZ
Pseudonocardia [7] = assay: Antimicrobial activity against Pseudonocardia 17SE-9 at 0.1 ug measured on day 5 by agar diffusion assay; conditions: 17SE-9, 120 h, read-out: DIZ

C=C(NC(=O)C(=C)NC(=O)c1csc(-c2ccc3c(n2)-c2csc(n2)-c2csc(n2)[C@@H]2C(C)C[C@H](O)N2C(=O)[C@H](Cc2ccc(O)cc2)NC(=O)C2CSC(=N2)[C@H](Cc2ccccc2)NC(=O)c2csc(n2)[C@H](CC(N)=O)NC(=O)c2nc-3oc2C)n1)C(=O)O (stereo partly specified)
zone of inhibition at 0.1 µg/disc (Candida albicans): 0 mm
zone of inhibition at 0.1 µg/disc (Trichoderma harzianum): 0 mm
zone of inhibition at 0.1 µg/disc (Pseudonocardia [1]): 23 mm
zone of inhibition at 0.1 µg/disc (Pseudonocardia [2]): 18.7 mm
zone of inhibition at 0.1 µg/disc (Pseudonocardia [3]): 28.3 mm
zone of inhibition at 0.1 µg/disc (Escovopsis sp.): 0 mm
zone of inhibition at 0.1 µg/disc (Pseudonocardia [4]): 20 mm
zone of inhibition at 0.1 µg/disc (Pseudonocardia [5]): 13.7 mm
zone of inhibition at 0.1 µg/disc (Pseudonocardia [6]): 18 mm
zone of inhibition at 0.1 µg/disc (Bacillus subtilis): 9.7 mm
zone of inhibition at 0.1 µg/disc (Pseudonocardia [7]): 0 mm
